Data on 18 compounds can be found in PubChem BioAssay AID330 (DTP/NCI, 2004).

The subject of this assay is P388 leukemia ip, CD2F1 mice, survival T/C. Put plainly: NCI In Vivo Anticancer Drug Screen. Data for tumor model P388 Leukemia (intraperitoneal) in CD2F1 (CDF1) mice. The settings on record: endpoint: median survival time, higher = longer survival. The method, boiled down:
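Mice carrying the transplanted tumor received test compound or vehicle. Survival was recorded in each group, and the value is the treated-group measurement divided by that of the vehicle-treated control group.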

The mark [1] stands for this setting: dose: 25.0 mg/kg/injection, schedule: Q01DX005 (ip), vehicle: Klucel (hydroxypropylcellulose) (HPC).
Where [2] appears, read: dose: 50.0 mg/kg/injection, schedule: Q01DX005 (ip), vehicle: Klucel (hydroxypropylcellulose) (HPC).
The mark [3] stands for this setting: dose: 100.0 mg/kg/injection, schedule: Q01DX005 (ip), vehicle: Klucel (hydroxypropylcellulose) (HPC).
Setting [4] is: dose: 60.0 mg/kg/injection, schedule: Q01DX005 (ip), vehicle: saline with Tween-80.
[5] abbreviates: dose: 120.0 mg/kg/injection, schedule: Q01DX005 (ip), vehicle: saline with Tween-80.
The mark [6] stands for this setting: dose: 240.0 mg/kg/injection, schedule: Q01DX005 (ip), vehicle: saline with Tween-80.
Setting [7] is: dose: 100.0 mg/kg/injection, schedule: Q01DX009 (ip), vehicle: saline with Tween-80.
[8] abbreviates: dose: 200.0 mg/kg/injection, schedule: Q01DX009 (ip), vehicle: saline with Tween-80.
The mark [9] stands for this setting: dose: 200.0 mg/kg/injection, schedule: Q04DX003 (ip), vehicle: saline with Tween-80.
The mark [10] stands for this setting: dose: 50.0 mg/kg/injection, schedule: Q01DX009 (ip), vehicle: Klucel (hydroxypropylcellulose) (HPC).
The mark [11] stands for this setting: dose: 100.0 mg/kg/injection, schedule: Q01DX009 (ip), vehicle: Klucel (hydroxypropylcellulose) (HPC).
The mark [12] stands for this setting: dose: 200.0 mg/kg/injection, schedule: Q01DX009 (ip), vehicle: Klucel (hydroxypropylcellulose) (HPC).

SMILES strings stand for the structures. Values joined by “and” are separate entries in the source; they are usually repeats but may differ in a detail not shown here. Equal values may be shown once. Toxic doses and inconclusive results are not listed.

With `CN(C)C1=C(Cl)C(=O)c2[nH]cnc2C1=O`, the T/C (dose: 6.25 mg/kg/injection, schedule: Q01DX005 (ip), vehicle: Klucel (hydroxypropylcellulose) (HPC)) was 113 % of control; the T/C (dose: 12.5 mg/kg/injection, schedule: Q01DX005 (ip), vehicle: Klucel (hydroxypropylcellulose) (HPC)) was 110 % of control; the T/C under setting [1] is 98 % of control.

As to `COc1cccc2c1C(=O)c1c(O)c3c(c(O)c1C2=O)C[C@@](O)(/C(C)=N/NC(=O)c1ccc(N(C)C)cc1)C[C@@H]3OC1CC(N)C(O)C(C)O1` (stereo not given in full), the T/C runs as follows: (dose: 0.12 mg/kg/injection, schedule: Q01DX009 (ip), vehicle: water) 94 % of control; (dose: 0.25 mg/kg/injection, schedule: Q01DX009 (ip), vehicle: water) 111 % of control; (dose: 0.5 mg/kg/injection, schedule: Q01DX009 (ip), vehicle: water) 150 % of control and 154 % of control; (dose: 1.0 mg/kg/injection, schedule: Q01DX009 (ip), vehicle: water) 154 % of control and 164 % of control; (dose: 2.0 mg/kg/injection, schedule: Q01DX009 (ip), vehicle: water) 164 % of control and 181 % of control; (dose: 4.0 mg/kg/injection, schedule: Q01DX009 (ip), vehicle: water) 157 % of control and 172 % of control. In addition, the T/C runs as follows: (dose: 8.0 mg/kg/injection, schedule: Q01DX009 (ip), vehicle: water) 86 % of control; (dose: 10.0 mg/kg/injection, schedule: Q01DX001 (ip), vehicle: water) 159 % of control; (dose: 16.0 mg/kg/injection, schedule: Q01DX009 (ip), vehicle: water) 89 % of control; (dose: 20.0 mg/kg/injection, schedule: Q01DX001 (ip), vehicle: water) 166 % of control; (dose: 40.0 mg/kg/injection, schedule: Q01DX001 (ip), vehicle: water) 115 % of control.

For `O=C1C(c2ccccc2)=c2c(c3ccccc3c3ccccc23)=C1c1ccccc1`, the T/C reads like this: under setting [2], 99 % of control; (dose: 50.0 mg/kg/injection, schedule: Q01DX005 (ip), vehicle: Klucel + Tween-80) 89 % of control and 95 % of control; under setting [3], 98 % of control; (dose: 100.0 mg/kg/injection, schedule: Q01DX005 (ip), vehicle: Klucel + Tween-80) 89 % of control and 104 % of control; (dose: 200.0 mg/kg/injection, schedule: Q01DX005 (ip), vehicle: Klucel (hydroxypropylcellulose) (HPC)) 95 % of control; (dose: 200.0 mg/kg/injection, schedule: Q01DX005 (ip), vehicle: Klucel + Tween-80) 106 % of control.

In the case of `O=C(Nc1ccc(Cl)cc1)Nc1nnc(-c2ccc(-c3nnc(NC(=O)Nc4ccc(Cl)cc4)o3)cc2)o1`, the T/C under setting [4] was 104 % of control, the T/C under setting [5] is 100 % of control and the T/C under setting [6] is 98 % of control.

Regarding `BOc1ccc(C)cc1CN(C)Cc1ccccc1`, the T/C was 103 % of control (dose: 100.0 mg/kg/injection, schedule: Q04DX002 (ip), vehicle: Klucel (hydroxypropylcellulose) (HPC)); 99 % of control (dose: 200.0 mg/kg/injection, schedule: Q04DX002 (ip), vehicle: Klucel (hydroxypropylcellulose) (HPC)); 104 % of control (dose: 400.0 mg/kg/injection, schedule: Q04DX002 (ip), vehicle: Klucel (hydroxypropylcellulose) (HPC)).

In the case of `CC=C(C)c1ccccc1` (mixture of isomers), the T/C is 104 % of control (dose: 25.0 mg/kg/injection, schedule: Q01DX009 (ip), vehicle: saline with Tween-80); 100 % of control (dose: 50.0 mg/kg/injection, schedule: Q01DX009 (ip), vehicle: saline with Tween-80); 103 % of control under setting [7]; 105 % of control under setting [8].

Regarding `CC(C)CN1CC(=O)N2Cc3ccccc3CN2C(=O)C1`, the T/C (dose: 50.0 mg/kg/injection, schedule: Q01DX005 (ip), vehicle: saline with Tween-80) was 101 % of control; the T/C (dose: 100.0 mg/kg/injection, schedule: Q01DX005 (ip), vehicle: saline with Tween-80) was 106 % of control; the T/C (dose: 200.0 mg/kg/injection, schedule: Q01DX005 (ip), vehicle: saline with Tween-80) is 103 % of control.

Consider `CCCS(=O)(=O)CCC(=O)c1cccs1`, for which the T/C reads like this: (dose: 100.0 mg/kg/injection, schedule: Q04DX002 (ip), vehicle: saline) 104 % of control; (dose: 200.0 mg/kg/injection, schedule: Q04DX002 (ip), vehicle: saline) 100 % of control; (dose: 400.0 mg/kg/injection, schedule: Q04DX002 (ip), vehicle: saline) 101 % of control.

On to `COC(=O)c1nc(N)nc(C(=O)OC)c1C(=O)c1cc(Cl)ccc1Cl`, for which the T/C was 100 % of control under setting [4] and 100 % of control under setting [5].

Consider `NC(CSC(c1ccccc1)(c1ccccc1)c1ccc(Cl)cc1)C(=O)O` (stereo not given), for which the T/C by setting is: (dose: 33.0 mg/kg/injection, schedule: Q04DX003 (ip), vehicle: saline with Tween-80) 177 % of control; (dose: 50.0 mg/kg/injection, schedule: Q04DX003 (ip), vehicle: saline with Tween-80) 181 % of control and 272 % of control; (dose: 75.0 mg/kg/injection, schedule: Q04DX003 (ip), vehicle: saline with Tween-80) 200 % of control; under setting [9], 100 % of control.

Turning to `CCOc1ccccc1C(=O)Nc1ccc(Br)cc1`, the T/C was 100 % of control under setting [10]; 99 % of control under setting [11]; 112 % of control under setting [7]; 100 % of control (dose: 100.0 mg/kg/injection, schedule: Q04DX003 (ip), vehicle: saline with Tween-80); 106 % of control under setting [12]; 104 % of control under setting [8]. For the same compound, the T/C by setting is: under setting [9], 100 % of control; (dose: 400.0 mg/kg/injection, schedule: Q01DX009 (ip), vehicle: Klucel (hydroxypropylcellulose) (HPC)) 97 % of control; (dose: 400.0 mg/kg/injection, schedule: Q01DX009 (ip), vehicle: saline with Tween-80) 91 % of control; (dose: 400.0 mg/kg/injection, schedule: Q04DX003 (ip), vehicle: saline with Tween-80) 95 % of control.

With `O=C(Nc1ccc(Cc2ccc(NC(=O)Nc3cccnc3)cc2)cc1)Nc1cccnc1`, the T/C under setting [10] is 101 % of control, the T/C under setting [11] is 94 % of control and the T/C under setting [12] is 88 % of control.

As for `O=NN(C(=O)NCCCl)c1[nH]c(=O)ncc1Cl`, the T/C by setting is: under setting [1], 97 % of control; under setting [2], 100 % of control; under setting [3], 108 % of control.

As to `COc1cc(C)c(/C(=N/O)n2nnc(-c3ccc(C)cc3)n2)c(C)c1`, the T/C (dose: 100.0 mg/kg/injection, schedule: Q01DX001 (ip), vehicle: saline with Tween-80) was 92 % of control and the T/C (dose: 200.0 mg/kg/injection, schedule: Q01DX001 (ip), vehicle: saline with Tween-80) was 91 % of control.

On to `O=C(O)CN1C(=O)c2cccc3cccc(c23)C1=O`, for which the T/C reads like this: (dose: 50.0 mg/kg/injection, schedule: Q01DX009 (ip), vehicle: suspension in saline) 101 % of control; (dose: 100.0 mg/kg/injection, schedule: Q01DX009 (ip), vehicle: suspension in saline) 102 % of control; (dose: 200.0 mg/kg/injection, schedule: Q01DX009 (ip), vehicle: suspension in saline) 100 % of control.

On to `Nc1ccc(C(=O)CCCN2CCCCC2)cc1`, for which the T/C runs as follows: (dose: 12.5 mg/kg/injection, schedule: Q01DX009 (ip), vehicle: saline) 104 % of control; (dose: 12.5 mg/kg/injection, schedule: Q04DX003 (ip), vehicle: saline) 91 % of control; (dose: 25.0 mg/kg/injection, schedule: Q01DX009 (ip), vehicle: saline) 95 % of control; (dose: 25.0 mg/kg/injection, schedule: Q04DX003 (ip), vehicle: saline) 95 % of control; (dose: 50.0 mg/kg/injection, schedule: Q01DX009 (ip), vehicle: saline) 90 % of control; (dose: 50.0 mg/kg/injection, schedule: Q04DX003 (ip), vehicle: saline) 91 % of control.

Regarding `COCCOCCOCCOCCOCCN`, the T/C (dose: 100.0 mg/kg/injection, schedule: Q04DX003 (ip), vehicle: saline) was 100 % of control; the T/C (dose: 200.0 mg/kg/injection, schedule: Q04DX003 (ip), vehicle: saline) was 100 % of control; the T/C (dose: 400.0 mg/kg/injection, schedule: Q04DX003 (ip), vehicle: saline) is 104 % of control.

`COC(=O)c1nnn(-c2ccc(S(N)(=O)=O)cc2)c1C(=O)c1ccc(Cl)c(Cl)c1`: the T/C was 109 % of control under setting [4], 109 % of control under setting [5] and 94 % of control under setting [6].
